Consider 1 compound from US8609332B2, “Assay” (Queen's University of Belfast, priority 2006, dated 2013).

The structures appear in SMILES notation.

The conditions of data set [1]: at 50 μM; cited from earlier work.
In data set [2] the test system is ser473 phosphorylated Akt. Briefly: AKT phosphorylation immunoblot. It is filed as cell-based, rat. The protocol:
FIG. 5C Immunodetection and LY290042-inhibition of phosphorylated Akt in parental R37, R37-CMV, R37-OPN and R37-RAN cells. 20 μg cell lysates were loaded onto a SDS 10% (W(W) polyacrylamide gel as follows: lane 1 R37, lane 2 R37-pBk-CMV; lane 3 R37-RAN, lane 4 R37-OPN; lane 5 R37-OPN treated with 50 μm LY290042 for 18 hr (R37-OPN/LY); and lane 6 R37-RAN treated with 50 μm LY290042 for 18 hr (R37-RAN/LY). Proteins were detected in immunoblots using specific antibodies to phosphoserine 473 AkT. Bands were quantified using densitometric analysis and quantified with respect to those of β-actin. The results were a representative sample of three experiments. The average fold increase for 3 different experiments for phosphorylated AkT on ser473 is: lane 1=1, lane 2=2.2±0.4, lane 3=22.5±0.7, lane 4=21.1±0.5, lane 5=0±0 and lane 6=0±0.
The R37, R37-CMV, R37-RAN and R37-OPN cells were harvested at 80% confluence from 7 cm dishes. The cell were lysed in 300 μl of 2× Loading buffer (20% glycerol (v/v), 4% SDS (w/v), 10% 2-mercaptoethanol (v/v), 126 mM Tris, pH 6.8 and coloured with bromophenol blue). The lysates were sonicated, boiled at 100° C. for 5 minutes and then centrifuged at 15000 rpm for 10 minutes. Proteins were resolved by 7.5% SDS-PAGE and immunoblofted for ser473 phosphorylated Akt.as previously (43).
(In general: In western blotting, separated proteins are transferred to a membrane and probed.)

For `O=c1cc(N2CCOCC2)oc2c(-c3ccccc3)cccc12` [LY294002, 2-4(4-morpholinyl)-8-phenyl-4H-1-benzopyran-4-one], the induction of apoptosis entry in data set [1] was “without inducing apoptosis”. Besides, the “phosphorylated AkT on ser473, average fold increase (R37 = 1)” value in data set [2] (R37-OPN cells treated with 50 μm for 18 hr (lane 5)) and in data set [2] (R37-RAN cells treated with 50 μm for 18 hr (lane 6)) was 0±0 fold each time.
